Measurements as given in ChEMBL document CHEMBL2177022, “Novel acidic 11β-hydroxysteroid dehydrogenase type 1 (11β-HSD1) inhibitor with reduced acyl glucuronide liability: the discovery of 4-[4-(2-adamantylcarbamoyl)-5-tert-butyl-pyrazol-1-yl]benzoic acid (AZD8329)” (J Med Chem, 2012).
The source made the active and inactive calls. The rule behind the calls is not given here.

Columns and labels:
Rattus norvegicus [1] = assay: Inhibition of 11betaHSD1 in lean Han Wistar rat adipose tissue assessed as reduction in assessed as [3H]cortisone to [3H]cortisol conversion at 10 mg/kg, po measured 3 hrs post dose; type: functional, organism-based; design: dose 10 mg/kg
Rattus norvegicus [2] = assay: Inhibition of 11betaHSD1 in lean Han Wistar rat liver assessed as reduction in assessed as [3H]cortisone to [3H]cortisol conversion at 3 mg/kg, po measured 3 hrs post dose; type: functional
[3] = target: T1, 11-beta-hydroxysteroid dehydrogenase 1 (Homo sapiens, UniProt P28845); assay: Inhibition of 11betaHSD1 in human adipocytes assessed as cortisone to cortisol conversion by scintillation counting method; type: cell-based
[4] = Inhibition of N-terminal 6-His tagged full length cynomolgus monkey 11betaHSD1 incubated for 25 mins by HTRF assay; design: species or system Macaca fascicularis
[5] = Inhibition of N-terminal 6-His tagged full length dog 11betaHSD1 incubated for 25 mins by HTRF assay; design: species or system Canis lupus familiaris
[6] = target: 11-beta-hydroxysteroid dehydrogenase 1 (Rattus norvegicus, UniProt P16232); assay: Inhibition of N-terminal 6-His tagged full length rat 11betaHSD1 incubated for 25 mins by HTRF assay
[7] = target: 11-beta-hydroxysteroid dehydrogenase 1 (Mus musculus, UniProt P50172); assay: Inhibition of N-terminal 6-His tagged full length mouse 11betaHSD1 incubated for 25 mins by HTRF assay
Cavia porcellus = assay: Toxicity in anesthetized guinea pig monophasic action potential model assessed as ventricular repolarization; type: organism-based, Cardiac ventricle; conditions: in vivo
L5178Y = assay: Genotoxicity in mouse L5178Y cells; type: toxicity, cell-based
[8] = target: Mineralocorticoid receptor (Homo sapiens) (UniProt P08235); assay: Inhibition of mineralocorticoid receptor
Salmonella typhimurium = assay: Genotoxicity in Salmonella typhimurium by Ames test; type: toxicity, organism-based; conditions: salmonella enterica subsp. enterica serovar typhimurium
[9] = target: Glucocorticoid receptor (Homo sapiens) (UniProt P04150); assay: Inhibition of glucocorticoid receptor
[10] = target: 17-beta-hydroxysteroid dehydrogenase type 3 (Homo sapiens) (UniProt P37058); assay: Inhibition of 17beta-HSD3 assessed as conversion of androstenedione to testosterone at 10 uM by scintillation counting method
[11] = target: 17-beta-hydroxysteroid dehydrogenase type 1 (Homo sapiens, UniProt P14061); assay: Inhibition of 17beta-HSD1 assessed as conversion of estrone to estradiol by scintillation counting method
[12] = target: 11-beta-hydroxysteroid dehydrogenase type 2 (Homo sapiens, UniProt P80365); assay: Inhibition of 11beta-HSD2 assessed as conversion of cortisol to cortisone by fluorescence based assay
[13] = Drug metabolism in bile duct cannulated rat urine assessed as oxidative metabolism level during 0 to 6 hrs post dose by metabolism-ID study; type: ADME, tissue-based; conditions: in vivo
[14] = Drug metabolism in bile duct cannulated rat bile assessed as oxidative metabolism level during 0 to 6 hrs post dose by metabolism-ID study; type: ADME; conditions: in vivo
[15] = Stability in bile duct cannulated rat urine assessed as parent compound remaining measured during 0 to 6 hrs post dose; type: ADME, tissue-based; conditions: in vivo
[16] = Stability in bile duct cannulated rat bile assessed as parent compound remaining measured during 0 to 6 hrs post dose; type: ADME; conditions: in vivo
[17] = Drug metabolism in dog hepatocytes assessed as oxidative metabolism level by metabolism-ID study; type: ADME, cell-based, Canis lupus familiaris, Hepatocyte
Hepatocyte [18] = assay: Stability in rat hepatocytes assessed as parent compound remaining; type: ADME, cell-based
[19] = Stability in dog hepatocytes assessed as parent compound remaining; type: ADME, cell-based, Canis lupus familiaris, Hepatocyte
Hepatocyte [20] = assay: Stability in human hepatocytes assessed as parent compound remaining; type: ADME, cell-based
Liver microsomes = assay: Stability in human liver microsomes assessed as oxidative metabolism-mediated generation of reactive metabolites; type: ADME, Microsome
Rattus norvegicus [21] = assay: Renal clearance in rat at 1 and 3 mg/kg relative to total clearance; type: ADME, organism-based, Kidney; design: dose 3 mg/kg; conditions: in vivo
Canis familiaris = assay: Renal clearance in dog at 1 and 3 mg/kg relative to total clearance; type: ADME, organism-based, Canis lupus familiaris, Kidney; design: dose 3 mg/kg; conditions: in vivo
[22] = Oral bioavailability in rat at 1 and 3 mg/kg; type: ADME, organism-based; conditions: in vivo
[23] = Oral bioavailability in dog at 1 and 3 mg/kg; type: ADME, organism-based, Canis lupus familiaris; conditions: in vivo
[24] = Oral bioavailability in mouse at 1 and 3 mg/kg; type: ADME, organism-based; conditions: in vivo
[25] = Half life in mouse at 1 and 3 mg/kg, po; type: ADME, organism-based; design: dose 3 mg/kg, route oral; conditions: in vivo
[26] = Half life in rat at 1 and 3 mg/kg, po; type: ADME, organism-based; design: dose 3 mg/kg, route oral; conditions: in vivo
[27] = Half life in dog at 1 and 3 mg/kg, po; type: ADME, organism-based, Canis lupus familiaris; design: dose 3 mg/kg, route oral; conditions: in vivo
[28] = Half life in rat at 1 and 3 mg/kg, iv; type: ADME, organism-based; design: dose 3 mg/kg, route intravenous; conditions: in vivo
[29] = Half life in dog at 1 and 3 mg/kg, iv; type: ADME, organism-based, Canis lupus familiaris; design: dose 3 mg/kg, route intravenous; conditions: in vivo
[30] = Volume of distribution at steady state in dog at 1 and 3 mg/kg; type: ADME, organism-based, Canis lupus familiaris; design: dose 3 mg/kg; conditions: in vivo, read-out: Vdss
[31] = Half life in mouse at 1 and 3 mg/kg, iv; type: ADME, organism-based; design: dose 3 mg/kg, route intravenous; conditions: in vivo
[32] = Volume of distribution at steady state in rat at 1 and 3 mg/kg; type: ADME, organism-based; design: dose 3 mg/kg; conditions: in vivo, read-out: Vdss
[33] = Volume of distribution at steady state in mouse at 1 and 3 mg/kg; type: ADME, organism-based; design: dose 3 mg/kg; conditions: in vivo, read-out: Vdss
[34] = Plasma clearance in dog at 1 and 3 mg/kg; type: ADME, organism-based, Canis lupus familiaris; design: dose 3 mg/kg
[35] = Plasma clearance in mouse at 1 and 3 mg/kg; type: ADME, organism-based; design: dose 3 mg/kg
[36] = Plasma clearance in rat at 1 and 3 mg/kg; type: ADME, organism-based; design: dose 3 mg/kg
[37] = Apparent permeability from basolateral to apical side in MDCK cells at 10 uM; type: ADME, cell-based, Canis lupus familiaris; conditions: dog
[38] = Percentage unbound in human plasma at 37 degC by equilibrium dialysis method; type: ADME, cell-free
[39] = Apparent permeability from apical to basolateral side in MDCK cells at 10 uM; type: ADME, cell-based, Canis lupus familiaris; conditions: dog
[40] = Percentage unbound in mouse plasma at 37 degC by equilibrium dialysis method; type: ADME, cell-free
[41] = Percentage unbound in dog plasma at 37 degC by equilibrium dialysis method; type: ADME, cell-free, Canis lupus familiaris
CYP2C9 = CYP2C9 (Homo sapiens, UniProt P11712); assay: Inhibition of CYP2C9 at 10 uM; type: ADME
CYP2C19 = CYP2C19 (Homo sapiens, UniProt P33261); assay: Inhibition of CYP2C19 at 10 uM; type: ADME
CYP2D6 = CYP2D6 (Homo sapiens, UniProt P10635); assay: Inhibition of CYP2D6 at 10 uM; type: ADME
CYP1A2 = CYP1A2 (Homo sapiens, UniProt P05177); assay: Inhibition of CYP1A2 at 10 uM; type: ADME
[42] = Oral bioavailability in rat; type: ADME, organism-based; conditions: in vivo
CYP3A4 = CYP3A4 (Homo sapiens, UniProt P08684); assay: Inhibition of CYP3A4 at 10 uM; type: ADME
[43] = Aqueous solubility in pH 7.4 phosphate buffer at 25 degC incubated for 24 hrs; type: physicochemical
[44] = Intrinsic clearance in rat hepatocytes assessed per 10^6 cells
[45] = Percentage unbound in rat plasma at 37 degC by equilibrium dialysis method; type: ADME, cell-free
[46] = Lipophilicity, log D at pH 7.4 by shake flask method; conditions: buffer
[47] = target: T1, 11-beta-hydroxysteroid dehydrogenase 1
Description: Inhibition of N-terminal 6-His tagged full length human 11betaHSD1 incubated for 25 mins by HTRF assay

in vivo = conditions: rat

T1 sequence (P28845 whole entry): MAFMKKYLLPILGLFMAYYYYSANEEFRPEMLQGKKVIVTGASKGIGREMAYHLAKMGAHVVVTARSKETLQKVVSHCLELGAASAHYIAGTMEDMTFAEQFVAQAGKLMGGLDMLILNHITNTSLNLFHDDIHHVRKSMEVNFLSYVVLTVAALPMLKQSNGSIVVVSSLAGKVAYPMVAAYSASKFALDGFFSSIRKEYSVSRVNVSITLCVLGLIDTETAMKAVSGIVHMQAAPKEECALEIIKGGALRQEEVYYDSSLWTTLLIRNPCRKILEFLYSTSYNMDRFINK
CYP2C19, sequence (P33261 whole entry): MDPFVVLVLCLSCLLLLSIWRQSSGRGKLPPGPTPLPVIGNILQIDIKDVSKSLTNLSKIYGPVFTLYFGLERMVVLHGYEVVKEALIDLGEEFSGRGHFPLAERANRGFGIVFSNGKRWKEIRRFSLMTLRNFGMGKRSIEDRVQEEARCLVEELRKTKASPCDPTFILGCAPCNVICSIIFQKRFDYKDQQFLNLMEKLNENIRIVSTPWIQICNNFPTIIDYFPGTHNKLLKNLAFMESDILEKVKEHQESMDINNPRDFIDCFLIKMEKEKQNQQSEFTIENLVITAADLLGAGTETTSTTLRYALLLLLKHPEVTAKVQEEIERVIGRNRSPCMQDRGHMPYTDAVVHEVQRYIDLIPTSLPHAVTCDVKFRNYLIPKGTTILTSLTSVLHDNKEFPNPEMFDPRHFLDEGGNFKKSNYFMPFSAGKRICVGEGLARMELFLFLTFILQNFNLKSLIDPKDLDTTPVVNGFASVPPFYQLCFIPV
17-beta-hydroxysteroid dehydrogenase type 3 (Homo sapiens), sequence (P37058 whole entry): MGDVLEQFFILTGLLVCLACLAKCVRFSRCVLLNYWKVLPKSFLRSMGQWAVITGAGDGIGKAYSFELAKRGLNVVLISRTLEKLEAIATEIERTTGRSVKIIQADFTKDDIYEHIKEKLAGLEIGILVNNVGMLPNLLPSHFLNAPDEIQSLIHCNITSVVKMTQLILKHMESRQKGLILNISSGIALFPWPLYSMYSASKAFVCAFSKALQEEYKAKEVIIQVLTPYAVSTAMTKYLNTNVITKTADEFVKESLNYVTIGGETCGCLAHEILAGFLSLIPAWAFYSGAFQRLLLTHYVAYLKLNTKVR
11-beta-hydroxysteroid dehydrogenase 1 (Mus musculus, UniProt P50172), sequence (P50172 whole entry): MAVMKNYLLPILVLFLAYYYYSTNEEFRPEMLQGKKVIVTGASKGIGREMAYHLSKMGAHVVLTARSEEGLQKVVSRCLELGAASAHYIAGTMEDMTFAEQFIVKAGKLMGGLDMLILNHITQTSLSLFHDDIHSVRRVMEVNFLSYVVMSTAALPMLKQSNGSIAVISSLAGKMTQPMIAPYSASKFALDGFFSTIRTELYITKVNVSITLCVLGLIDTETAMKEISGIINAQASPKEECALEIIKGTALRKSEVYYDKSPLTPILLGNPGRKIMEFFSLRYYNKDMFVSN
Glucocorticoid receptor (Homo sapiens), sequence (P04150 whole entry): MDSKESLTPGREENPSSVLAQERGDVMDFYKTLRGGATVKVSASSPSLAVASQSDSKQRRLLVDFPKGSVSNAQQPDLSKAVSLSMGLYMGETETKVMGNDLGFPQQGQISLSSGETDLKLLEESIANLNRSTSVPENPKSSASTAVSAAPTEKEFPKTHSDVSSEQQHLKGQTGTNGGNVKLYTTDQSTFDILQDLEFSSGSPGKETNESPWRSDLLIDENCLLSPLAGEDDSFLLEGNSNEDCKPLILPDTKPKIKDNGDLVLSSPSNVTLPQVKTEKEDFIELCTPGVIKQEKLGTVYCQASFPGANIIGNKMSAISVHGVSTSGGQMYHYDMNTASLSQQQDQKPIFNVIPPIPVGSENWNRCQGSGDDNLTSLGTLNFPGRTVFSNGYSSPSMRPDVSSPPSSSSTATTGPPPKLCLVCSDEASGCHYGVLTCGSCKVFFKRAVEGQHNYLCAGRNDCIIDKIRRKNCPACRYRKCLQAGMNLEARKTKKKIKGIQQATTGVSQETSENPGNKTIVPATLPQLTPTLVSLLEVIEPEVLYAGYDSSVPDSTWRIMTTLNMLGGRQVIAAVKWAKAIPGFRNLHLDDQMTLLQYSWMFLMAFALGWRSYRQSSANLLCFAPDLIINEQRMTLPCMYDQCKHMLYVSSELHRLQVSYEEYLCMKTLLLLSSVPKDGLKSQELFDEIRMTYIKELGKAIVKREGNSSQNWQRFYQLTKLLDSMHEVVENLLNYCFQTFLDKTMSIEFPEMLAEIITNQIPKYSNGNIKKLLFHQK
CYP3A4, sequence (P08684 whole entry): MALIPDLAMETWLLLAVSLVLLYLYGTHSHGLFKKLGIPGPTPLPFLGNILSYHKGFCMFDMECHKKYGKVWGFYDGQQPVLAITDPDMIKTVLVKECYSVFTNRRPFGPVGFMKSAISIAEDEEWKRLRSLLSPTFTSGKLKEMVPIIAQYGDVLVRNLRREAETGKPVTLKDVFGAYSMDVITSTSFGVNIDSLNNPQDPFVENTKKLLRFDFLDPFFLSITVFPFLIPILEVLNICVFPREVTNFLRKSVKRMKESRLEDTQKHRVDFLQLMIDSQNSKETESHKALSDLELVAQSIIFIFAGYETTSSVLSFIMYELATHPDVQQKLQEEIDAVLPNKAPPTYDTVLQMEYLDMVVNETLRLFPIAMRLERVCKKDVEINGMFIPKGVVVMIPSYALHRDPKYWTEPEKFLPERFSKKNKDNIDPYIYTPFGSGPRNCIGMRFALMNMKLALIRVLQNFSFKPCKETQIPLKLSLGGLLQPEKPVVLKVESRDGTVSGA
11-beta-hydroxysteroid dehydrogenase 1 (Rattus norvegicus, UniProt P16232), sequence (P16232 whole entry): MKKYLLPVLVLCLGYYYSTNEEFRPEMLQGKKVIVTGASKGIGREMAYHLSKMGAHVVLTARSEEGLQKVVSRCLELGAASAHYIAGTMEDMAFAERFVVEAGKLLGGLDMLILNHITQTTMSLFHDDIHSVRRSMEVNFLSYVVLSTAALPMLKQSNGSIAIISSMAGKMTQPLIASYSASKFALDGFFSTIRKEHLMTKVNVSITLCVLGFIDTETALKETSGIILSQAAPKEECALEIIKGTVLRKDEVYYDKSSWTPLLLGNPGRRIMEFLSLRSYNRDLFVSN
11-beta-hydroxysteroid dehydrogenase type 2, sequence (P80365 whole entry): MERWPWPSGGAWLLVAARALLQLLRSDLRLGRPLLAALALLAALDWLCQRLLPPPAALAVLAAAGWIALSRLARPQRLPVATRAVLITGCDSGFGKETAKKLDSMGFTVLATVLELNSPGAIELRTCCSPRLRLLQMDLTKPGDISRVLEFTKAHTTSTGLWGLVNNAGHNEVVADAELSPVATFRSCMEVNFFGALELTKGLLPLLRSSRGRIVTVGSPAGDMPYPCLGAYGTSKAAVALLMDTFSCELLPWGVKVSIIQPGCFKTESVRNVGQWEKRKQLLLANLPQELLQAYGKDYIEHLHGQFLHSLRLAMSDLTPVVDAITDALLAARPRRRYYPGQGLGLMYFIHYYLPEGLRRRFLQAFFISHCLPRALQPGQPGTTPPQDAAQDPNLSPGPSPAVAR
CYP1A2, sequence (P05177 whole entry): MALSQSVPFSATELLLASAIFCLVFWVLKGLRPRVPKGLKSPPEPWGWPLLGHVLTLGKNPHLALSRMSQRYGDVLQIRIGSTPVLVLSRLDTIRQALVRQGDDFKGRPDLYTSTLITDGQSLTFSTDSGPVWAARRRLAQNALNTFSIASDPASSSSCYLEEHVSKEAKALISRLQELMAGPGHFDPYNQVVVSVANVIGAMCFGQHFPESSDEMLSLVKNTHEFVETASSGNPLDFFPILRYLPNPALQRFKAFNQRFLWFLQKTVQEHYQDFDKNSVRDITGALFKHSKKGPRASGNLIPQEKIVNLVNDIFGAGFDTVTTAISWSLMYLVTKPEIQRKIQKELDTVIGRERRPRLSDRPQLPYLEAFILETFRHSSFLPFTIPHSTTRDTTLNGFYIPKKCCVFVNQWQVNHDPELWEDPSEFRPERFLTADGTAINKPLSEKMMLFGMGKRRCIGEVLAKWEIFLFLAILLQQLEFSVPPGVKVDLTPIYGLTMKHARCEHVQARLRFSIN
17-beta-hydroxysteroid dehydrogenase type 1, sequence (P14061 whole entry): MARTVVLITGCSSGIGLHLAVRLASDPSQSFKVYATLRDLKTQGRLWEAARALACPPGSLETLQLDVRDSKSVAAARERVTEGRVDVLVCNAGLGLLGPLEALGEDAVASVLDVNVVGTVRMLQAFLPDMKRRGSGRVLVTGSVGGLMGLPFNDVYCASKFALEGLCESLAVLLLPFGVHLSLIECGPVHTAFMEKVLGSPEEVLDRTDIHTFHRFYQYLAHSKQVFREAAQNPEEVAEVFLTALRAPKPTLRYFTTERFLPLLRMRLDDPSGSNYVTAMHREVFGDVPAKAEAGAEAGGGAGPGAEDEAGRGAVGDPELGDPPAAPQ
CYP2D6, sequence (P10635 whole entry): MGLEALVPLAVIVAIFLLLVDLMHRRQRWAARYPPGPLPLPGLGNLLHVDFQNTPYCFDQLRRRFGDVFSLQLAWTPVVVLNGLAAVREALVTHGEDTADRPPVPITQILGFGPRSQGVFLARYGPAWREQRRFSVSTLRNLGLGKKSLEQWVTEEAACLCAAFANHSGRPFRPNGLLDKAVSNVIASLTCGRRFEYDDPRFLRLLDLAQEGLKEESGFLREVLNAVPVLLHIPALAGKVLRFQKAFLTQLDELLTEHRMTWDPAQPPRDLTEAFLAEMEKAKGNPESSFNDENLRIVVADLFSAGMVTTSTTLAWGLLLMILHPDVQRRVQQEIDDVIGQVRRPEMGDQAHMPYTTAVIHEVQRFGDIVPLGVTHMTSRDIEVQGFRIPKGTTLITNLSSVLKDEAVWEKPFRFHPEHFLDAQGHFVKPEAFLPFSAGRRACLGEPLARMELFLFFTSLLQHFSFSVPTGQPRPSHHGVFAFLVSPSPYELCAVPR

For CC(C)(C)c1c(C(=O)NC2C3CC4CC(C3)CC2C4)cnn1-c1ccc(C(=O)O)cc1 (stereo not drawn), the inhibition (Rattus norvegicus [1]) was “Active”, the inhibition in vivo at 3 mg/kg (Rattus norvegicus [2]) was 50% and the IC50 [3] was 2 nM. It also gave an IC50 [4] of 24 nM, an IC50 [5] of 8 nM and an IC50 [6] of 86 nM. The IC50 [7] was 6100 nM, the Activity (Cavia porcellus) was “Non-toxic” and the Activity (L5178Y) was “Non-toxic”. For the same molecule, the inhibition [8] was “inactive”, the Activity (Salmonella typhimurium) was “Non-toxic” and the inhibition [9] was “inactive”. The inhibition [10] was less than 5%, the IC50 [11] was greater than 30000 nM and the IC50 [12] was greater than 30000 nM. The Drug metabolism [13] was 0.2%, the Drug metabolism [14] was 80.1% and the Stability [15] was 99.4%. It also gave a Stability [16] of 10.8%, a Drug metabolism [17] of 5.8% and a Stability (Hepatocyte [18]) of 96%. For the same molecule, the Stability [19] was 93.7%, the Stability (Hepatocyte [20]) was 95% and the Stability (Liver microsomes) was “Stable”. It also gave a CL (Rattus norvegicus [21]) of less than 1%, a CL (Canis familiaris) of less than 5% and a bioavailability [22] of 95%. The bioavailability [23] was 45%, the bioavailability [24] was 100% and the half-life [25] was 2.2 h. For the same molecule, the half-life [26] was 4.9 h, the half-life [27] was 5.1 h and the half-life [28] was 5.8 h. It also gave a half-life [29] of 5.5 h, a Vd [30] of 0.1 L/kg and a half-life [31] of 0.8 h. It also gave a Vd [32] of 0.3 L/kg, a Vd [33] of 0.4 L/kg and a clearance [34] of 0.3 mL/min/kg. For the same molecule, the clearance [35] was 9 mL/min/kg, the clearance [36] was 0.6 mL/min/kg and the Papp B→A at 10 µM [37] was 3.9 ×10⁻⁶ cm/s. The fraction unbound [38] was 0.014, the Papp A→B at 10 µM [39] was 7.3 ×10⁻⁶ cm/s and the fraction unbound [40] was 0.035. The fraction unbound [41] was 0.02, the inhibition at 10 µM (CYP2C9) was less than 25% and the inhibition at 10 µM (CYP2C19) was less than 25%. The inhibition at 10 µM (CYP2D6) was less than 25%, the inhibition at 10 µM (CYP1A2) was less than 25% and the bioavailability [42] was 95%. The inhibition at 10 µM (CYP3A4) was less than 25%, the solubility at 24 h [43] was greater than 1900 µM and the hepatocyte CLint [44] was less than 2 µL/min/1e6 cells. The fraction unbound [45] was 0.013, the logD [46] was 1 and the IC50 [47] was 9 nM. For the same molecule, the clearance (in vivo) was 0.6 mL/min/kg.
